{"source": "patent US20070274947A1", "about": "“Antisense Oligonucleotides Directed to Ribonucleotide Reductase R1 and Uses Thereof in the Treatment of Cancer” (priority 2003, published 2007)", "key": {"[1]": {"test_system": "SIHA human cervical cancer cells", "assay": "SIHA cervical tumor growth in SCID mice", "assay_type": "in vivo", "experimental": "SIHA human cervical cancer cells (1×10^7 cells in 100 μl of PBS) were subcutaneously injected into the right flank of 6-7 week old female SCID mice. After the size of tumor reached an approximate volume of 100 mm^3, 7 days post tumor cell injection, SEQ ID NO:1 was administered by bolus infusion into the tail vein every other day at 10 mg/kg. Control animals received saline alone for the same period. Treatments lasted for 16 days thereafter. Antitumor activities were estimated by the inhibition of tumor volume (FIG. 11A), which was measured with a caliper on five different occasions over 16-day period. Each point represents mean tumor volume calculated from 10 animals per experimental group."}, "A2058 (melanoma)": {"test_system": "A2058 (melanoma)", "assay": "Colony forming ability, A2058", "assay_type": "cell-based, human", "details": "0.2 μM antisense oligonucleotide/lipofectin, 4 hours", "experimental": "(§1) The effect of SEQ ID NO:1 on the colony forming ability were evaluated in the following human tumor cell lines:\n(§2) Tumor cells were washed in 5 ml of phosphate buffered saline, pH 7.2, prior to 0.2 μM antisense oligonucleotide/lipofectin treatment for 4 hours. The medium was removed and the cells were gently washed with 5 ml of growth medium. The cells were then cultured in growth medium for seven to ten days. Surviving colonies were visualized by methylene blue staining and colonies of 50 or more cells were scored (Choy et al., 1988 and Huang and Wright, 1994). Results are summarized from 4 to 8 trials for each tumor cell line."}, "[2]": {"test_system": "CB7 Friend retrovirus-induced mouse Erytheroleukemia cells", "assay": "Survival of SCID mice bearing mouse erythroleukemia (CB7)", "assay_type": "in vivo", "details": "10 mg/kg i.v. every second day, stopped at day 71; one mouse died at day 30 and another at day 54; untreated died within 36 days", "experimental": "In vivo studies were conducted to assess the therapeutic potential of SEQ ID NO:1 in the treatment of mouse Erythroleukemia. CB7 Friend retrovirus-induced mouse Erytheroleukemia cells (5×10^6) collected from subconfluent logarithmically growing cultures were injected i.v. via the tail vein of each animal and disease was allowed to establish for 2 days. SEQ ID NO:1 in normal saline was administered by tail vein injections every second day at a dose of 10 mg/kg. Control animals received saline alone, without oligonucleotide. Treatment with SEQ ID NO:1 was stopped at day 71. Antitumor effects of SEQ ID NO:1 treatment were assessed by the examination of survival of mice (FIG. 19). All mice died as a consequence of tumor progression within 36 days when left untreated. All SEQ ID NO:1 treated animals, on the other hand, survived beyond day 71 except one mouse which died at day 30 and another at day 54."}, "[3]": {"details": "monkey, in vivo"}, "[4]": {"test_system": "MDA-MB435-To.1 human Taxol-resistant breast adenocarcinoma cells", "assay": "Taxol-resistant breast adenocarcinoma MDA-MB435-To.1 growth in SCID mice", "assay_type": "in vivo", "experimental": "MDA-MB435-To.1 human Taxol-resistant breast adenocarcinoma cells (4×10^6 cells in 100 μl of PBS) were injected into the fat pad (inside of right leg) of 6-7 weeks old female SCD mice. After the size of tumor reached an approximate volume of 100 mm^3, 20 days post tumor cell injection, SEQ ID NO:1 was administered by bolus infusion into the tail vein every other day at 10 mg/kg 15 times. Control animals received saline alone for the same period. Antitumor effect of SEQ ID NO:1 was further compared to that of Cisplatin or Taxol alone (FIG. 15A). Cisplatin was administered intravenously once a week for four weeks at a dose of 4 mg/kg. Taxol was administered intravenously once a week for four weeks at a dose of 20 mg/kg. Antitumor activities were estimated by the inhibition of tumor volume, which was measured with caliper (FIG. 15B). Each point represents mean tumor volume calculated from 9-10 animals per experimental group. […] As expected, treatment with Taxol during the same period was ineffective against Taxol-resistant tumor.\nMDA-MB435-To.1 human Taxol-resistant breast adenocarcinoma cells (4×10^6 cells in 100 μl of PBS) were injected into the fat pad (inside of right leg) of 6-7 weeks old female CB-17 SCID mice. After the size of tumor reached an approximate volume of 100 mm^3, 17 days post tumor cell injection, SEQ ID NO:1 was administered by bolus infusion into the tail vein every other day at 10 mg/kg. Control animals received saline alone for the same period. Antitumor effect of SEQ ID NO:1 was compared to that of Cisplatin alone and in combination. Cisplatin was administered intravenously once a week for four weeks at a dose of 4 mg/kg. Antitumor activities were estimated by the inhibition of tumor volume, which was measured with caliper (FIG. 15B). Each point represents mean tumor volume calculated from 10 animals per experimental group. At the end of the study the animals were sacrificed and tumors weighed (FIG. 15C)."}, "[5]": {"test_system": "Human taxol-resistant promyelocytic leukemia cells (HL-60)", "assay": "Taxol-resistant promyelocytic leukemia (HL-60) growth in SCID mice", "assay_type": "in vivo", "details": "SEQ ID NO:1 10 mg/kg i.v. every other day, taxol 10 mg/kg i.p. once a week", "experimental": "Human taxol-resistant promyelocytic leukemia cells (HL-60) (7×10^6 cells in 100 μl of PBS) were injected into the right flank of 6-7 weeks old female SCID mice. After the size of tumor reached an approximate volume of 100 mm^3, 10 days post tumor cell injection, SEQ ID NO:1 was administered by bolus infusion into the tail vein every other day at 10 mg/kg. Control animals received saline alone for the same period. The anti-tumor effect of SEQ ID NO:1 was further compared to that of taxol. Taxol was administered i.p. once a week at a dose of 10 mg/kg. Anti-tumor activity was estimated by the inhibition of tumor volume, which was measured with caliper (FIG. 17A). Each point represents mean tumor volume calculated from 10 animals per experimental group. In addition animals were sacrificed and tumor weights taken at the end of the study."}, "SK-OV-3 (ovary)": {"test_system": "SK-OV-3 (ovary)", "assay": "Colony forming ability, SK-OV-3", "assay_type": "cell-based, human", "details": "0.2 μM antisense oligonucleotide/lipofectin, 4 hours", "experimental": "as §1, §2"}, "R1 mRNA": {"test_system": "R1 mRNA", "assay": "Northern blot of R1 mRNA in HT-29 cells", "assay_type": "cell-based, human", "details": "0.2 μM, four hours with Lipofectin, 16 hours recovery", "experimental": "Total RNA was isolated using TRIzol reagent (GIBCO BRL) after cells were treated with 0.2 μM SEQ ID NO:1 for four hours in the presence of cationic lipid (Lipofectin reagent, GIBCO BRL), washed with PBS, and incubated for 16 hours to recover in normal medium containing 10% FBS. Northern blot analysis was performed as previously described (Hurta and Wright, 1995). RNA was subjected to electrophoresis through 1% formaldehyde agarose gels followed by transfer to nylon membranes. Blots were hybridized in the presence of a R1 fragment (McClarty et al, 1987). Glyceraldehyde-3-phosphate dehydrogenase (GAPDH) mRNA levels were simultaneously probed for RNA loading controls."}}, "note": "Entries after “also recorded” stand apart in the source; their conditions may differ."}
{"substance": "5′-CTCTAGCGTCTTAAAGCCGA-3′ (CTCTAGCGTCTTAAAGCCGA; chemistry not given here) [SEQ ID NO:1]", "values": [{"measurement": "inhibition of tumor volume", "setting": "[1]; 10 mg/kg i.v. every other day, 16 days, vs saline", "result": "strong inhibitory effects"}, {"measurement": "weight of excised tumors", "setting": "[1]; end of treatments", "result": "strong antitumor effect"}, {"measurement": "inhibition in colony forming ability", "setting": "A2058 (melanoma)", "result": "greater than 60%"}, {"measurement": "survival of mice", "setting": "[2]", "result": "> 71", "unit": "days"}, {"measurement": "levels in the brain", "setting": "[3]", "result": "very low or below the limits of detection"}, {"measurement": "tissue concentrations, rank order", "setting": "[3]", "result": "kidney>liver>spleen>lymph node (monkey)>lung (monkey)>heart"}, {"measurement": "tissue levels upon discontinuation of treatment", "setting": "[3]", "result": "decreased over time"}, {"measurement": "delay in tumor growth compared with Cisplatin", "setting": "[4]; first experiment, Cisplatin 4 mg/kg weekly as positive control", "result": "superior to the inhibitory effects observed with Cisplatin"}, {"measurement": "tumor weight / tumor growth", "setting": "[4]; first experiment, start 20 days post injection, SEQ ID NO:1 10 mg/kg 15 times, Cisplatin 4 mg/kg, Taxol 20 mg/kg weekly for four weeks", "result": "significant reduction of tumor weight"}, {"measurement": "delay in tumor growth compared with Cisplatin", "setting": "[4]; second experiment, CB-17 SCID mice", "result": "superior to the inhibitory effects observed with Cisplatin"}, {"measurement": "tumor weight / tumor growth", "setting": "[4]; second experiment, CB-17 SCID mice, start 17 days post injection, SEQ ID NO:1 10 mg/kg every other day, Cisplatin 4 mg/kg weekly", "result": "significant reduction of tumor weight"}, {"measurement": "tumor growth / tumor weight", "setting": "[5]", "result": "significant reduction of tumor weight"}, {"measurement": "inhibition in colony forming ability", "setting": "SK-OV-3 (ovary)", "result": "greater than 60%"}, {"measurement": "R1 mRNA level", "setting": "R1 mRNA", "result": "specifically decreases R1 mRNA; also recorded: significant decrease; also recorded: decreased R1 mRNA levels"}]}
